Where two headings read alike, the source gives them in different places.
Key:
[1] = test system: A549 (lung) cancer cell line; assay: 2D-monolayer antiproliferation (MTT) against A549; assay type: cell-based, human; conditions: for IC50: Homo sapiens, MTT, 72 h incubation, A549 lung, read-out: IC50, μM ± SEM A549; for SI (selectivity index) A549: IC50 of RPE1 normal cell/IC50 of A549
COX-2 = target: T1, COX-2 (Homo sapiens, UniProt P35354); assay: biochemical; conditions: for inhibition at 10 µM: 3 replicates, read-out: % Inhibition of COX-2 ± SEM; for SI (selectivity index, COX-2/COX-1): at 10 μM
T1 construct: purchased BioVision incorporated USA K548–100
T1 sequence (P35354 18-604): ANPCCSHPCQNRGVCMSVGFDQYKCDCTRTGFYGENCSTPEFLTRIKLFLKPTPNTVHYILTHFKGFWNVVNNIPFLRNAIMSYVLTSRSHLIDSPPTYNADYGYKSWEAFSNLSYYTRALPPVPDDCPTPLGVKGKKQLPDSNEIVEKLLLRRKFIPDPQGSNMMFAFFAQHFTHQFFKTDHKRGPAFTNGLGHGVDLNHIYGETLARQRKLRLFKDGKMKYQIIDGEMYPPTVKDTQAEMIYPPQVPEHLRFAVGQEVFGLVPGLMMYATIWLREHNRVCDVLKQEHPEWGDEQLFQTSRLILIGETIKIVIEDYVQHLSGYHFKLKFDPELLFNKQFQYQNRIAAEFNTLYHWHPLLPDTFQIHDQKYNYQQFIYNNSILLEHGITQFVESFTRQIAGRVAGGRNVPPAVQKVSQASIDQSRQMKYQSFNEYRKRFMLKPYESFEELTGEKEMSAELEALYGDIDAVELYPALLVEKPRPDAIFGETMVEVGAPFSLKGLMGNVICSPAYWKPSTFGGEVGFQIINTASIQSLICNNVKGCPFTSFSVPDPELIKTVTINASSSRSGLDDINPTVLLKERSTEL

VEGFR-2 [2] = target: T2, VEGFR-2 (Homo sapiens, UniProt P35968); assay: cell-based; assay type: cell-based; conditions: for inhibition at 10 µM: HCT-116, HCT116; for VEGFR-2 pg/mL ± SEM HCT116: at 10 μM, control 317.80 ± 3.5
T2 construct: endogenous in cells; host or cells: HCT116, PaCa2, MCF7 (human cancer cell lines, ATCC origin)

TNF-α [3] = assay: TNF-α inhibitory properties (ELISA), HCT116 cell lysate; assay type: cell-based, human; conditions: at 10 μM; for TNF-α pg/mL (± SEM) HCT116: control 95.74 ± 0.5
TNF-α [4] = assay: TNF-α inhibitory properties (ELISA), PaCa2 cell lysate; assay type: cell-based, human; conditions: at 10 μM; for TNF-α pg/mL (± SEM) PaCa2: control 111.8 ± 2.0
[5] = test system: PaCa2 (pancreatic) cancer cell line; assay: 2D-monolayer antiproliferation (MTT) against PaCa2; assay type: cell-based, human; conditions: for IC50: Homo sapiens, PaCa-2, MTT, 72 h incubation, PaCa2 pancreatic, read-out: IC50, μM ± SEM PaCa2; for SI (selectivity index) PaCa2: IC50 of RPE1 normal cell/IC50 of PaCa2; for 1/(observed property): 1/observed IC50 (μM), PaCa2
[6] = test system: MCF7 (breast) cancer cell line; assay: 2D-monolayer antiproliferation (MTT) against MCF7; assay type: cell-based, human; conditions: for IC50: Homo sapiens, MTT, 72 h incubation, MCF7 breast, read-out: IC50, μM ± SEM MCF7; for SI (selectivity index) MCF7: IC50 of RPE1 normal cell/IC50 of MCF7
TNF-α [7] = assay: TNF-α inhibitory properties (ELISA), MCF7 cell lysate; assay type: cell-based, human; conditions: at 10 μM; for TNF-α pg/mL (± SEM) MCF7: control 83.26 ± 1.1
COX-1 = target: T3, COX-1 (Ovis aries, UniProt P05979); assay: biochemical; conditions: 3 replicates, read-out: % Inhibition of COX-1 ± SEM
T3 construct: purchased BioVision incorporated USA K548–100
T3 sequence (P05979 25-600): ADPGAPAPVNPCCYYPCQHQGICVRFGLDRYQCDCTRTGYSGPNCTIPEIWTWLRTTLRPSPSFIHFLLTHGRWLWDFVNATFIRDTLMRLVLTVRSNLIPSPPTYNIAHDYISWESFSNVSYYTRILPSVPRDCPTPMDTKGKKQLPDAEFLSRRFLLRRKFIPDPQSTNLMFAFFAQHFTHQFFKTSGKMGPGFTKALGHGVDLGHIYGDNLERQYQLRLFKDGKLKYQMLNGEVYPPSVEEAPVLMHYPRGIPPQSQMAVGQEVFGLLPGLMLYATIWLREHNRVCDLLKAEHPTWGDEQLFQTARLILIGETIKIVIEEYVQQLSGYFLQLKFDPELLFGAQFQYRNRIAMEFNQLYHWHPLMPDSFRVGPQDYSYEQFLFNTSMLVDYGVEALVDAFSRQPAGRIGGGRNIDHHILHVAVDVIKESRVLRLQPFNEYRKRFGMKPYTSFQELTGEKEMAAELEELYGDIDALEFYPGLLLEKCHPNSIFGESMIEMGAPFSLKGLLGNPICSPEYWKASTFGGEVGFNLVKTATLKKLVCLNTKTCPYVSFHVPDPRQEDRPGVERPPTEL

[8] = test system: HCT116 (colon) cancer cell line; assay: 2D-monolayer antiproliferation (MTT) against HCT116; assay type: cell-based, human; conditions: for IC50: Homo sapiens, HCT-116; for SI (selectivity index) HCT116: IC50 of RPE1 normal cell/IC50 of HCT116
VEGFR-2 [9] = target: T2, VEGFR-2; assay: cell-based; assay type: cell-based; conditions: for inhibition at 10 µM: PaCa-2, PaCa2; for VEGFR-2 pg/mL ± SEM PaCa2: at 10 μM, control 326.80 ± 1.9
VEGFR-2 [10] = target: T2, VEGFR-2; assay: cell-based; assay type: cell-based; conditions: for inhibition at 10 µM: MCF7; for VEGFR-2 pg/mL ± SEM MCF7: at 10 μM, control 258.70 ± 2.3
[11] = test system: RPE1 (normal human immortalized retinal pigment epithelial cell line); assay: cells; assay type: cell-based; conditions: for IC50: Homo sapiens, RPE-1, MTT, normal RPE1 cell, read-out: IC50, μM ± SEM RPE1
[12] = MTT, 72 h incubation, HCT116 colon, read-out: IC50, μM ± SEM HCT116
[13] = log of observed IC50 (μM), HCT116, read-out: Log(observed property) (converted)

T2 sequence (P35968 20-1356): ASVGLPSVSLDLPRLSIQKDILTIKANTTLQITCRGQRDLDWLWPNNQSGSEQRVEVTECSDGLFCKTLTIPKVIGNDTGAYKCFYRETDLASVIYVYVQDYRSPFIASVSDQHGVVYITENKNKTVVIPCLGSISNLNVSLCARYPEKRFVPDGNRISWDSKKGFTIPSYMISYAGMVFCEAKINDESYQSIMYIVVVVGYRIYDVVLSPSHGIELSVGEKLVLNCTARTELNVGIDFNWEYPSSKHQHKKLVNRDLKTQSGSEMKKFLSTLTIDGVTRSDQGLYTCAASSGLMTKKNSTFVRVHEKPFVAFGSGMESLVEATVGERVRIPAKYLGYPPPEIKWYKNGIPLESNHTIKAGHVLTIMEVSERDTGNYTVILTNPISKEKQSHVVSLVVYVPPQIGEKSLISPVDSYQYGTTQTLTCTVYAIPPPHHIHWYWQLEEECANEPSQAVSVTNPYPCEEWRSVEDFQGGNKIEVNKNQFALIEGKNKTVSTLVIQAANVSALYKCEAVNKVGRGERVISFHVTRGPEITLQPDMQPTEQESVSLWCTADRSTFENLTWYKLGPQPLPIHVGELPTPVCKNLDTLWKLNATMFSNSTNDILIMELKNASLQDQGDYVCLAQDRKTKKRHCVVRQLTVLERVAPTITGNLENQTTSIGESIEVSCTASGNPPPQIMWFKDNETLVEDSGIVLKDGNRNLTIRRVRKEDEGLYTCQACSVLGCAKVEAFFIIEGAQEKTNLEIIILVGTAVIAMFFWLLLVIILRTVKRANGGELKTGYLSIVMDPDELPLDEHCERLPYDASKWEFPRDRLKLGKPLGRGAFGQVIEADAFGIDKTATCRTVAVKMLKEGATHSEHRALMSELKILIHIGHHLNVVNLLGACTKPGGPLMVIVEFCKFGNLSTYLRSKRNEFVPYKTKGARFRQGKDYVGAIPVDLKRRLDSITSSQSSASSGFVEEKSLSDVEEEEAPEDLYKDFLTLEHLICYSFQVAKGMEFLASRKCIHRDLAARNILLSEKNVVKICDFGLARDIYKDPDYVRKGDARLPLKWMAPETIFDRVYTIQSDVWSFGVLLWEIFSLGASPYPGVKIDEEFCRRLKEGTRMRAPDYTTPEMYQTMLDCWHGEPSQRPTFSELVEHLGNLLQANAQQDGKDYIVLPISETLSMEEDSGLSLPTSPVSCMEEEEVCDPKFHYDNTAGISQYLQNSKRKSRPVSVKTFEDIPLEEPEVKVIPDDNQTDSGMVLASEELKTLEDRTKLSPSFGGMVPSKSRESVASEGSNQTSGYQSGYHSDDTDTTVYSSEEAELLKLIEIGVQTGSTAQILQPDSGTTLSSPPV

Structure (SMILES)	IC50 [1] [µM]	SI (selectivity index) A549 [1]	inhibition at 10 µM (COX-2) [%]	inhibition at 10 µM (VEGFR-2 [2]) [%]	VEGFR-2 pg/mL ± SEM HCT116 (VEGFR-2 [2]) [pg/mL]	TNF-α % inhibition HCT116 (TNF-α [3]) [%]	TNF-α pg/mL (± SEM) HCT116 (TNF-α [3]) [pg/mL]	TNF-α pg/mL (± SEM) PaCa2 (TNF-α [4]) [pg/mL]	IC50 [5] [µM]	SI (selectivity index) PaCa2 [5]	IC50 [6] [µM]	SI (selectivity index) MCF7 [6]	TNF-α pg/mL (± SEM) MCF7 (TNF-α [7]) [pg/mL]	inhibition at 10 µM (COX-1) [%]	IC50 [8, 12] [µM]	SI (selectivity index) HCT116 [8]	inhibition at 10 µM (VEGFR-2 [9]) [%]	VEGFR-2 pg/mL ± SEM PaCa2 (VEGFR-2 [9]) [pg/mL]	inhibition at 10 µM (VEGFR-2 [10]) [%]	VEGFR-2 pg/mL ± SEM MCF7 (VEGFR-2 [10]) [pg/mL]	also measured
CCOP(=O)(OCC)N1C/C(=C\c2ccccc2)C(=O)C2(C1)C(c1ccccc1)CN(C)C21C(=O)Nc2ccc(F)cc21 (stereo not shown) [Compound 17b, Diethyl (E)-(5′′-benzylidene-5-fluoro-1′-methyl-2,4′′-dioxo-4′-phenyldispiro[indoline-3,2′-pyrrolidine-3′,3′′-piperidin]-1′′-yl)phosphonate]	11 ± 0.135	2.1	61.3 ± 2.6	77	73.25 ± 2.0	1.1	94.64 ± 2.2	105.7 ± 3.9	12.2 ± 0.297	1.9	5.83 ± 0.213	4.0	82.25 ± 2.6	53.7 ± 3.7	7.41 ± 0.228	3.1	88.1	38.75 ± 1.4	70.2	77.20 ± 0.6	SI (selectivity index, COX-2/COX-1) (COX-2): 1.04; TNF-α % inhibition PaCa2 (TNF-α [4]): 5.5%; IC50 [8, 13]: 7.41 µM; IC50 [11]: 23.1 ± 0.884 µM
CCOP(=O)(OCC)N1C/C(=C\c2ccccc2)C(=O)C2(C1)C(c1ccccc1)CN(C)C21C(=O)Nc2ccc(Cl)cc21 (stereo not shown) [Compound 17c, Diethyl (E)-(5′′-benzylidene-5-chloro-1′-methyl-2,4′′-dioxo-4′-phenyldispiro[indoline-3,2′-pyrrolidine-3′,3′′-piperidin]-1′′-yl)phosphonate]	12.5 ± 0.205	1.1	53.9 ± 1.7	86	44.50 ± 1.1	66.9	31.72 ± 1.2	33.8 ± 2.2	9.15 ± 0.154	1.5	5.27 ± 0.172	2.6	23.16 ± 0.7	58.6 ± 3.5	6.32 ± 0.132	2.2	91.3	28.43 ± 1.0	76.7	60.40 ± 0.5	SI (selectivity index, COX-2/COX-1) (COX-2): 1.05; TNF-α % inhibition PaCa2 (TNF-α [4]): 69.8%; 1/(observed property) [5]: 0.1093; TNF-α % inhibition MCF7 (TNF-α [7]): 72.2%; IC50 [8, 13]: 6.32 µM; IC50 [11]: 13.8 ± 0.423 µM
CCOP(=O)(OCC)N1C/C(=C\c2ccc(F)cc2)C(=O)C2(C1)C(c1ccc(F)cc1)CN(C)C21C(=O)Nc2ccccc21 (stereo not shown) [Compound 17e, Diethyl (E)-[5′′-(4-fluorobenzylidene)-4′-(4-fluorophenyl)-1′-methyl-2,4′′-dioxodispiro[indoline-3,2′-pyrrolidine-3′,3′′-piperidin]-1′′-yl]phosphonate]	7.73 ± 0.155	2.1	59.6 ± 1.3	66.2	107.50 ± 2.0	1.5	94.27 ± 0.7	97.6 ± 1.6	9.48 ± 0.278	1.8	5.64 ± 0.273	2.9	81.87 ± 3.0	55 ± 3.6	6.99 ± 0.101	2.4	61	127.43 ± 1.3	55	116.50 ± 1.0	SI (selectivity index, COX-2/COX-1) (COX-2): 1.08; TNF-α % inhibition PaCa2 (TNF-α [4]): 12.7%; 1/(observed property) [5]: 0.1055; TNF-α % inhibition MCF7 (TNF-α [7]): 1.7%; IC50 [8, 13]: 6.99 µM; IC50 [11]: 16.6 ± 0.907 µM
CCOP(=O)(OCC)N1C/C(=C\c2ccc(F)cc2)C(=O)C2(C1)C(c1ccc(F)cc1)CN(C)C21C(=O)Nc2ccc(Cl)cc21 (stereo not shown) [Compound 17f, Diethyl (E)-[5-chloro-5′′-(4-fluorobenzylidene)-4′-(4-fluorophenyl)-1′-methyl-2,4′′-dioxodispiro[indoline-3,2′-pyrrolidine-3′,3′′-piperidin]-1′′-yl]phosphonate]	> 50	< 0.8	60.8 ± 2.7	86.2	43.70 ± 0.9	10.7	85.46 ± 1.3	109.8 ± 4.7	5.25 ± 0.224	7.6	5.29 ± 0.175	7.5	82.45 ± 4.0	57.6 ± 1.1	3.72 ± 0.099	10.7	91.6	27.53 ± 1.1	75.6	63.20 ± 0.9	SI (selectivity index, COX-2/COX-1) (COX-2): 1.01; activity fold of sunitinib [5]: 3.2 fold; 1/(observed property) [5]: 0.1904; TNF-α % inhibition MCF7 (TNF-α [7]): 1.0%; IC50 [11]: 39.9 ± 1.16 µM; selectivity index (SI) ([11]; IC50 against RPE1 compared to the tested cancer cell line(s), in words): high selectivity index
CCOP(=O)(OCC)N1C/C(=C\c2ccc(F)cc2)C(=O)C2(C1)C(c1ccc(F)cc1)CN(C)C21C(=O)Nc2ccc(C)cc21 (stereo not shown) [Compound 17g, Diethyl (E)-(5′′-(4-fluorobenzylidene)-4′-(4-fluorophenyl)-1′,5-dimethyl-2,4′′-dioxodispiro[indoline-3,2′-pyrrolidine-3′,3′′-piperidin]-1′′-yl)phosphonate]	8.15 ± 0.277	2.3	51.8 ± 2.8	69	98.40 ± 1.2	14.6	81.75 ± 2.1	97.4 ± 3.6	6.09 ± 0.132	3.1	5.43 ± 0.152	3.5	83.0 ± 3.2	62.1 ± 3.1	5.01 ± 0.364	3.8	77.7	72.80 ± 0.9	75	64.80 ± 0.5	TNF-α % inhibition PaCa2 (TNF-α [4]): 12.9%; 1/(observed property) [5]: 0.1641; TNF-α % inhibition MCF7 (TNF-α [7]): 0.3%; IC50 [8, 13]: 5.01 µM; IC50 [11]: 19 ± 0.647 µM

Source: paper PMC12504763, “Antiproliferation, 3D-multicellular spheroid and VEGFR-2 inhibitory properties of spiroindolin-2-ones with phosphonate function” (Scientific Reports, 2025)
